Experimental data: the supplement of paper PMC11061612

Experiments:
[1] = tested on: OACp4C (Esophageal Adenocarcinoma); experiment: Bliss excess, mean over the matrix (fraction); higher = more synergy
Procedure, shortened: (§1)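 Cell lines grown in DMEM/F12 or RPMI with 10% FBS were plated in 1536-well plates and held 24 hours at 37°C, 5% CO2 before 72 hours of exposure to two-drug dose matrices, with DMSO typically at 0.2%. CellTiter-Glo 2.0 luminescence gave viability, which was converted to inhibition. Vehicle wells were set to 0 and blank wells to 1. Combination Emax is the second-highest inhibition in the matrix, and Bliss excess is the observed combination effect minus the expected EA + EB − EA·EB, where EA and EB are the single-agent effects.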

[2] = tested on: NCI-H2228 (Lung Adenocarcinoma); experiment: as above
Procedure, shortened: as §1

[3] = tested on: HT55 (Colorectal Carcinoma); experiment: as above
Procedure, shortened: as §1

[4] = tested on: HCC70 (Breast Carcinoma); experiment: as above
Procedure, shortened: as §1

[5] = tested on: JHU-022 (Oral Cavity Carcinoma); experiment: as above
Procedure, shortened: as §1

[6] = tested on: CESS (Acute Myeloid Leukemia); experiment: combination Emax (second highest fraction inhibited in the dose matrix, 72 h); higher = more inhibition; extreme values may be limits of the assay
Procedure, shortened: as §1

[7] = tested on: DU-4475 (Breast Carcinoma); experiment: as above
Procedure, shortened: as §1

[8] = tested on: CAL-27 (Oral Cavity Carcinoma); experiment: as above
Procedure, shortened: as §1

[9] = tested on: CA46 (Burkitt's Lymphoma); experiment: as above
Procedure, shortened: as §1

[10] = tested on: KYSE-140 (Esophageal Squamous Cell Carcinoma); experiment: as above
Procedure, shortened: as §1

[11] = tested on: G-402 (Other Solid Carcinomas); experiment: as above
Procedure, shortened: as §1

[12] = tested on: NCI-H2087 (Lung Adenocarcinoma); experiment: as above
Procedure, shortened: as §1

[13] = tested on: RH-41 (Rhabdomyosarcoma); experiment: as above
Procedure, shortened: as §1

[14] = tested on: EB2 (Burkitt's Lymphoma); experiment: as above
Procedure, shortened: as §1

[15] = tested on: IM-9 (Non-Cancerous); experiment: as above
Procedure, shortened: as §1

[16] = tested on: JVM-2 (B-Cell Non-Hodgkin's Lymphoma); experiment: as above
Procedure, shortened: as §1

[17] = tested on: HCC1428 (Breast Carcinoma); experiment: as above
Procedure, shortened: as §1

[18] = tested on: MHH-ES-1 (Ewing's Sarcoma); experiment: as above
Procedure, shortened: as §1

[19] = tested on: HCC70 (Breast Carcinoma); experiment: as above
Procedure, shortened: as §1

[20] = tested on: SK-HEP-1 (Hepatocellular Carcinoma); experiment: as above
Procedure, shortened: as §1
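Throughout, for Bliss excess, mean over the matrix: after 72 h of two-drug dosing.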

Row | Structure (SMILES) | Bliss excess [1] | Bliss excess [2] | Bliss excess [3] | Bliss excess [4] | Bliss excess [5] | combination Emax [6] | combination Emax [7] | combination Emax [8] | combination Emax [9] | combination Emax [10] | combination Emax [11] | combination Emax [12] | combination Emax [13] | combination Emax [14] | combination Emax [15] | combination Emax [16] | combination Emax [17] | combination Emax [18] | combination Emax [19] | combination Emax [20]
1 | Cc1c2c(nn1C)CSCc1cc(n(C)n1)CSc1cc(c3ccccc3c1)OCCCc1c(C(=O)O)n(C)c3c-2c(Cl)ccc13 [AZD5991] + C1CN(CCC1(C(=O)N[C@@H](CCO)C2=CC=C(C=C2)Cl)N)C3=NC=NC4=C3C=CN4 [Capivasertib] (first compound max 1 µM, 7x7, partner max 3 µM) | 0.019 | -0.0225 | -0.0129 | 0.0761 | -0.0273 | 0.566 | 0.24 | 0.996 | 0.351 | 0.862 | 0.984 | 0.129 | 1 | 0.479 | 0.756 | 0.801 | 0.977 | 0.591 | 0.99 | 0.334
2 | CN(C)CCCOc1ccc(-c2ccc3ncc4c(c3c2)n(C2CCOCC2)c(=O)n4C)cn1 [AZD0156] + C=CCn1c(=O)c2cnc(Nc3ccc(N4CCN(C)CC4)cc3)nc2n1-c1cccc(C(C)(C)O)n1 [AZD1775] (first compound max 1 µM, partner max 1 µM) | -0.0245 | -0.0934 | -0.0671 | -0.0682 | -0.0446 | 0.929 | 0.924 | 0.376 | 0.636 | 0.844 | 0.363 | 0.332 | 0.948 | 0.841 | 0.986 | 0.888 | 0.125 | 0.671 | 0.542 | 0.469
3 | C[C@@H]1COCCN1c1cc(C2([S@](C)(=N)=O)CC2)nc(-c2ccnc3[nH]ccc23)n1 [AZD6738] + O=C(c1cc(Cc2n[nH]c(=O)c3ccccc23)ccc1F)N1CCN(C(=O)C2CC2)CC1 [Olaparib] (first compound max 10 µM, 7x7, partner max 10 µM) | -0.0281 | -0.0305 | 0.0204 | 0.0085 | -0.0489 | 0.864 | 0.975 | 0.793 | 0.412 | 0.744 | 0.627 | 0.534 | 0.808 | 0.813 | 0.986 | 0.836 | 0.261 | 0.868 | 0.722 | 0.498
4 | CC1(C)CCC(CN2CCN(c3ccc(C(=O)NS(=O)(=O)c4ccc(NCC5CCOCC5)c([N+](=O)[O-])c4)c(Oc4cnc5[nH]ccc5c4)c3)CC2)=C(c2ccc(Cl)cc2)C1 [Venetoclax] + CCN(CCO)CCCOc1ccc2c(Nc3cc(CC(=O)Nc4cccc(F)c4)[nH]n3)ncnc2c1 [AZD2811] (first compound max 1 µM, 7x7, partner max 1 µM) | -0.0234 | -0.039 | 0.0034 | -0.0223 | -0.0139 | 0.615 | 0.404 | 0.43 | 0.0318 | 0.367 | 0.667 | 0.176 | 0.418 | 0.677 | 0.976 | 0.681 | 0.451 | 0.657 | 0.616 | 0.27
5 | CCN(CCO)CCCOc1ccc2c(Nc3cc(CC(=O)Nc4cccc(F)c4)[nH]n3)ncnc2c1 [AZD2811] + C[C@@H]1COCCN1C2=NC(=NC(=C2)C3(CC3)[S@](=N)(=O)C)C4=C5C=CNC5=NC=C4 [AZD6738] (first compound max 1 µM, 7x7, partner max 10 µM) | 0 | -0.0184 | -0.0227 | -0.131 | -0.0357 | 0.893 | 0.944 | 0.515 | 0.482 | 0.92 | 0.606 | 0.662 | 0.706 | 0.746 | 0.981 | 0.875 | 0.172 | 0.685 | 0.797 | 0.42
6 | NC1(C(=O)N[C@@H](CCO)c2ccc(Cl)cc2)CCN(c2ncnc3[nH]ccc23)CC1 [Capivasertib] + COc1nnc2ccc(N3CCC(c4ccc(OCCN5CCN(C)C(=O)[C@H]5C)cc4)CC3)nn12 [AZD5153] (first compound max 10 µM, 7x7, partner max 1 µM) | 0.0153 | 0.036 | -0.0408 | 0.0422 | 0.0019 | 0.747 | 0.979 | 0.833 | 0.644 | 0.857 | 0.723 | 0.301 | 1 | 0.707 | 0.811 | 0.79 | 0.571 | 0.717 | 0.876 | 0.497
7 | Cn1cnc2c(F)c(Nc3ccc(Br)cc3Cl)c(C(=O)NOCCO)cc21 [Selumetinib] + CCN(CCO)CCCOc1ccc2c(Nc3cc(CC(=O)Nc4cccc(F)c4)[nH]n3)ncnc2c1 [AZD2811] (first compound max 10 µM, 7x7, partner max 1 µM) | 0.0193 | -0.0357 | 0.0032 | 0.0138 | 0.0079 | 0.423 | 1 | 0.611 | 0.312 | 0.294 | 0.578 | 0.445 | 0.309 | 0.182 | 0.995 | 0.633 | 0.297 | 0.609 | 0.603 | 0.362
8 | C=CCn1c(=O)c2cnc(Nc3ccc(N4CCN(C)CC4)cc3)nc2n1-c1cccc(C(C)(C)O)n1 [AZD1775] + C[C@@H]1COCCN1C2=NC(=NC(=C2)C3(CC3)[S@](=N)(=O)C)C4=C5C=CNC5=NC=C4 [AZD6738] (first compound max 1 µM, partner max 10 µM) | -0.028 | -0.0399 | 0.0434 | -0.0312 | -0.0276 | 0.937 | 1 | 0.682 | 0.739 | 0.967 | 0.674 | 0.729 | 0.995 | 0.88 | 0.999 | 0.901 | 0.49 | 0.714 | 0.898 | 0.65
9 | CC1(C)CCC(CN2CCN(c3ccc(C(=O)NS(=O)(=O)c4ccc(NCC5CCOCC5)c([N+](=O)[O-])c4)c(Oc4cnc5[nH]ccc5c4)c3)CC2)=C(c2ccc(Cl)cc2)C1 [Venetoclax] + COc1cc(Nc2ncc3c(n2)-c2ccc(Cl)cc2C(c2c(F)cccc2OC)=NC3)ccc1C(=O)O [Alisertib] (first compound max 1 µM, 7x7, partner max 10 µM) | 0.0112 | -0.0413 | 0.0009 | 0.0437 | -0.0385 | 0.89 | 0.807 | 0.689 | 0.436 | 0.423 | 0.57 | 0.177 | 0.765 | 0.803 | 1 | 0.892 | 0.339 | 0.795 | 0.412 | 0.349
10 | CC1(C)CCC(CN2CCN(c3ccc(C(=O)NS(=O)(=O)c4ccc(NCC5CCOCC5)c([N+](=O)[O-])c4)c(Oc4cnc5[nH]ccc5c4)c3)CC2)=C(c2ccc(Cl)cc2)C1 [Venetoclax] + CN(C)CCCOc1ccc(-c2ccc3ncc4c(c3c2)n(C2CCOCC2)c(=O)n4C)cn1 [AZD0156] (first compound max 1 µM, 7x7, partner max 1 µM) | -0.0468 | -0.0004 | -0.0443 | -0.0057 | -0.0382 | 0.142 | 0.0995 | 0.173 | 0 | 0.289 | 0.359 | 0.149 | 0.491 | 0.736 | 0.812 | 0.34 | 0.161 | 0.487 | 0.395 | 0.158
11 | Cc1c2c(nn1C)CSCc1cc(n(C)n1)CSc1cc(c3ccccc3c1)OCCCc1c(C(=O)O)n(C)c3c-2c(Cl)ccc13 [AZD5991] + CCN(CCO)CCCOc1ccc2c(Nc3cc(CC(=O)Nc4cccc(F)c4)[nH]n3)ncnc2c1 [AZD2811] (first compound max 1 µM, 7x7, partner max 1 µM) | 0.0088 | 0.0161 | 0.0472 | -0.0219 | 0.0039 | 0.578 | 0.378 | 0.974 | 0.193 | 0.602 | 0.946 | 0.191 | 1 | 0.342 | 1 | 0.772 | 0.974 | 0.883 | 0.935 | 0.387
12 | CC(=O)c1c(C)c2cnc(Nc3ccc(N4CCNCC4)cn3)nc2n(C2CCCC2)c1=O [Palbociclib] + Cc1c2c(nn1C)CSCc1cc(n(C)n1)CSc1cc(c3ccccc3c1)OCCCc1c(C(=O)O)n(C)c3c-2c(Cl)ccc13 [AZD5991] (first compound max 10 µM, 7x7, partner max 1 µM) | -0.064 | -0.0537 | 0.0046 | -0.0171 | -0.0971 | 0.669 | 0.231 | 0.914 | 0.304 | 0.301 | 0.839 | 0.218 | 0.911 | 0.518 | 0.714 | 0.704 | 0.952 | 0.622 | 0.867 | 0.848
13 | CCN(CCO)CCCOc1ccc2c(Nc3cc(CC(=O)Nc4cccc(F)c4)[nH]n3)ncnc2c1 [AZD2811] + C=CCn1c(=O)c2cnc(Nc3ccc(N4CCN(C)CC4)cc3)nc2n1-c1cccc(C(C)(C)O)n1 [AZD1775] (first compound max 1 µM, partner max 1 µM) | -0.0436 | 0.0112 | 0.0302 | -0.0112 | -0.0217 | 0.922 | 0.948 | 0.511 | 0.489 | 0.826 | 0.526 | 0.291 | 0.961 | 0.77 | 0.999 | 0.91 | 0.158 | 0.734 | 0.589 | 0.355
